Each structure is given as a SMILES string.

In general, Ki refers to a measure of affinity in units of concentration, obtained from inhibition or displacement.

glucocorticoid receptor, sequence (P04150 whole entry): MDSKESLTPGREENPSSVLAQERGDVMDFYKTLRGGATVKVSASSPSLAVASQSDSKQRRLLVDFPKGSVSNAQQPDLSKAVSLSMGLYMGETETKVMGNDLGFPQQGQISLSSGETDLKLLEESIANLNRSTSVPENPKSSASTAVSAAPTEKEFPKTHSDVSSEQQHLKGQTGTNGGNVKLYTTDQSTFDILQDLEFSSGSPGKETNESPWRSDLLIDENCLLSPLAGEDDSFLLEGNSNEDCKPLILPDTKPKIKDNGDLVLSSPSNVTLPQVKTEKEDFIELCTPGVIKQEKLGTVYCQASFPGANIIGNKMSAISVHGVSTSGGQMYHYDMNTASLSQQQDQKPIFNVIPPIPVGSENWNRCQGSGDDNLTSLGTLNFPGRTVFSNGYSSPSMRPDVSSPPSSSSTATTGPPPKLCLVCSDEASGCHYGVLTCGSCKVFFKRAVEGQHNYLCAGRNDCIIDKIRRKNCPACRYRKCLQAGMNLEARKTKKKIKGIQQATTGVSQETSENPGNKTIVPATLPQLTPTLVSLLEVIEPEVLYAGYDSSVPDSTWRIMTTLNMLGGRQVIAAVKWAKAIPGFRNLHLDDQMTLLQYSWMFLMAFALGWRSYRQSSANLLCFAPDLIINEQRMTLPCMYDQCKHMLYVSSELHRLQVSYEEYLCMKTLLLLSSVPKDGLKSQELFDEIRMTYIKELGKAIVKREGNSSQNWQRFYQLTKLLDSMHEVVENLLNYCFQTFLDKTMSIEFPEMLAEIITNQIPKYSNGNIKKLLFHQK

The test deals with glucocorticoid receptor (Homo sapiens (Human), UniProt P04150). Kind of test: HepG2 TAT assay: inhibition of dexamethasone-induced tyrosine aminotransferase (TAT) activity. Format: cell-based. The conditions noted are these: HepG2 cells, challenge of 100 nM dexamethasone, 18-24 hr; IC50 converted to Ki by Cheng and Prusoff equation. The essentials:
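Cells lysed 15 min at 4 °C; TAT enzyme reaction 2 h at 37 °C, stopped with KOH, 30 min further at 37 °C. Inhibition fitted to 4-parameter logistic.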
In the case of `COCCOCCS(=O)(=O)N1C[C@@H]2[C@@H](c3ccccc3)[C@]2(c2cc3cnn(-c4ccc(F)cc4)c3cc2C)C1` (stereo in doubt) [Example 138, 1-(4-fluorophenyl)-5-(3-((2-(2-methoxyethoxy)ethyl)sulfonyl)-6-phenyl-3-azabicyclo[3.1.0]hexan-1-yl)-6-methyl-1H-indazole], the Ki is 70 nM. In turn, `Cc1cc2c(cnn2-c2ccc(F)cc2)cc1[C@@]12CN(C(=O)c3ncc(F)cc3F)C[C@@H]1[C@H]2c1ccccc1` (stereo in doubt) [Example 157, (3,5-difluoropyridin-2-yl)(1-(1-(4-fluorophenyl)-6-methyl-1H-indazol-5-yl)-6-phenyl-3-azabicyclo[3.1.0]hexan-3-yl)methanone] yielded a Ki of 18 nM. To `COCCS(=O)(=O)N1C[C@@H]2[C@@H](c3ccccc3)[C@]2(c2cc3cnn(-c4ccc(F)cc4)c3cc2C)C1` [Example 86] belongs 32 nM; to `Cc1cc2c(cnn2-c2ccc(F)cc2)cc1[C@@]12CN(C(=O)c3cccc(N4CCOCC4)c3)C[C@@H]1[C@H]2c1ccccc1` (stereo in doubt) [Example 142, (1-(1-(4-fluorophenyl)-6-methyl-1H-indazol-5-yl)-6-phenyl-3-azabicyclo[3.1.0]hexan-3-yl)(3-morpholinophenyl)methanone], 15 nM.

Regarding `Cc1cc2c(cnn2-c2ccc(F)cc2)cc1C12CN(S(=O)(=O)c3cnn(C)n3)CC1C2COc1ccccn1` (centres unmarked) [Example 50, 1-(4-fluorophenyl)-6-methyl-5-(3-((2-methyl-2H-1,2,3-triazol-4-yl)sulfonyl)-6-((pyridin-2-yloxy)methyl)-3-azabicyclo[3.1.0]hexan-1-yl)-1H-indazole], the affinity corresponds to a Ki of 680 nM. To `COC1(c2ccccc2)CC2CN(S(C)(=O)=O)CC2(c2cc3cnn(-c4ccc(F)cc4)c3cc2C)C1` (centres unmarked) [Example 13] belongs 78 nM; to `Cc1cc2c(cnn2-c2ccc(F)cc2)cc1[C@@]12CN(S(=O)(=O)c3cnn(C)n3)C[C@@H]1[C@H]2C(=O)NCC(C)C` [Example 66], 150 nM; to `Cc1cc2c(cnn2-c2ccc(F)cc2)cc1C12CC(=O)CC1CN(C(=O)OC(C)(C)C)C2` (centres unmarked) [Example 1, tert-butyl 3a-(1-(4-fluorophenyl)-6-methyl-1H-indazol-5-yl)-5-oxohexahydrocyclopenta[c]pyrrole-2(1H)-carboxylate], 370 nM.

With `Cc1cc2c(cnn2-c2ccc(F)cc2)cc1[C@@]12CN(C(=O)c3ncccc3C)C[C@@H]1[C@H]2c1ccccc1` (stereo in doubt) [Example 162, (1-(1-(4-fluorophenyl)-6-methyl-1H-indazol-5-yl)-6-phenyl-3-azabicyclo[3.1.0]hexan-3-yl)(3-methylpyridin-2-yl)methanone], the Ki was found to be 29 nM. Take `Cc1csc(C(=O)N2C[C@@H]3[C@@H](c4ccccc4)[C@]3(c3cc4cnn(-c5ccc(F)cc5)c4cc3C)C2)n1` (stereo in doubt) [Example 175, (1-(1-(4-fluorophenyl)-6-methyl-1H-indazol-5-yl)-6-phenyl-3-azabicyclo[3.1.0]hexan-3-yl)(4-methylthiazol-2-yl)methanone]: the affinity corresponds to a Ki of 13 nM. As for `Cc1ccc(C(=O)N2C[C@@H]3[C@@H](c4ccccc4)[C@]3(c3cc4cnn(-c5ccc(F)cc5)c4cc3C)C2)nc1` (single isomer, unassigned) [Example 151, (1-(1-(4-fluorophenyl)-6-methyl-1H-indazol-5-yl)-6-phenyl-3-azabicyclo[3.1.0]hexan-3-yl)(5-methylpyridin-2-yl)methanone], the figure is 28 nM; as for `Cc1cc2c(cnn2-c2ccc(F)cc2)cc1[C@@]12CN(S(=O)(=O)c3cccnc3)C[C@@H]1[C@H]2c1ccccc1` [Example 90], 14 nM; as for `Cc1cc2c(cnn2-c2ccc(F)cc2)cc1[C@@]12CN(C(=O)c3ccccc3)C[C@@H]1[C@H]2c1ccccc1` (stereo in doubt) [Example 110, (1-(1-(4-fluorophenyl)-6-methyl-1H-indazol-5-yl)-6-phenyl-3-azabicyclo[3.1.0]hexan-3-yl)(phenyl)methanone], 23 nM. To `CC(=O)N1C[C@@H]2[C@@H](c3ccccc3)[C@]2(c2cc3cnn(-c4ccc(F)cc4)c3cc2C)C1` (single isomer, unassigned) [Example 111, 1-(1-(1-(4-fluorophenyl)-6-methyl-1H-indazol-5-yl)-6-phenyl-3-azabicyclo[3.1.0]hexan-3-yl)ethan-1-one] belongs 52 nM; to `CO[C@]1(c2ccccc2)C[C@@H]2CN(S(=O)(=O)c3cnn(C)c3)C[C@]2(c2cc3cnn(-c4ccc(F)cc4)c3cc2C)C1` [Example 5, 1-(4-fluorophenyl)-5-((3aR,5R,6aS)-5-methoxy-2-((1-methyl-1H-pyrazol-4-yl)sulfonyl)-5-phenylhexahydrocyclopenta[c]pyrrol-3a(1H)-yl)-6-methyl-1H-indazole], 240 nM. As for `Cc1cc2c(cnn2-c2ccc(F)cc2)cc1[C@@]12CN(S(=O)(=O)c3cnn(C)n3)C[C@@H]1[C@H]2C(=O)NC1CCCC1` [Example 61], the figure is 200 nM. The compound `Cc1cc2c(cnn2-c2ccc(F)cc2)cc1[C@@]12CN(S(=O)(=O)C3CCC3)C[C@@H]1[C@H]2c1ccccc1` (stereo in doubt) [Example 139, 5-(3-(cyclobutylsulfonyl)-6-phenyl-3-azabicyclo[3.1.0]hexan-1-yl)-1-(4-fluorophenyl)-6-methyl-1H-indazole] gave a Ki of 45 nM. Compared with the last compound, the Ki is about 4.4-fold lower. Compound `Cc1cc2c(cnn2-c2ccc(F)cc2)cc1[C@@]12CN(C(=O)c3cccc(C(C)C)n3)C[C@@H]1[C@H]2c1ccccc1` (stereo in doubt) [Example 166, (1-(1-(4-fluorophenyl)-6-methyl-1H-indazol-5-yl)-6-phenyl-3-azabicyclo[3.1.0]hexan-3-yl)(6-isopropylpyridin-2-yl)methanone] had a Ki of 47 nM. The Ki values of the last two compounds are within 1.5-fold of each other.

Regarding `Cc1cc2c(cnn2-c2ccc(F)cc2)cc1C12CN(C(=O)OC(C)(C)C)CC1CC(O)(c1ccccc1)C2` (centres unmarked) [Example 17, tert-butyl 3a-(1-(4-fluorophenyl)-6-methyl-1H-indazol-5-yl)-5-hydroxy-5-phenylhexahydrocyclopenta[c]pyrrole-2(1H)-carboxylate], the Ki was 42 nM. The Ki values of the last two compounds are within 1.5-fold of each other. As for `Cc1cc2c(cnn2-c2ccc(F)cc2)cc1[C@@]12CN(S(=O)(=O)CC(C)C)C[C@@H]1[C@H]2c1ccccc1` [Example 104], the figure is 30 nM; as for `Cc1cc2c(cnn2-c2ccc(F)cc2)cc1[C@@]12CN(S(=O)(=O)c3cncs3)C[C@@H]1[C@H]2c1ccccc1` [Example 91], 22 nM; as for `CC#CC1(OC)CC2CN(S(=O)(=O)c3cnn(C)c3)CC2(c2cc3cnn(-c4ccc(F)cc4)c3cc2C)C1` (centres unmarked) [Example 16], 270 nM. To `Cc1cc2c(cnn2-c2ccc(F)cc2)cc1[C@@]12CN(C(=O)c3ccccc3)C[C@@H]1[C@@]2(C)c1ccccc1` (stereo in doubt) [Example 183, (1-(1-(4-fluorophenyl)-6-methyl-1H-indazol-5-yl)-6-methyl-6-phenyl-3-azabicyclo[3.1.0]hexan-3-yl)(phenyl)methanone] belongs 37 nM; to `CNC(=O)N1C[C@@H]2[C@@H](c3ccccc3)[C@]2(c2cc3cnn(-c4ccc(F)cc4)c3cc2C)C1` (single isomer, unassigned) [Example 124, 1-(1-(4-fluorophenyl)-6-methyl-1H-indazol-5-yl)-N-methyl-6-phenyl-3-azabicyclo[3.1.0]hexane-3-carboxamide], 120 nM. `Cc1cc2c(cnn2-c2ccc(F)cc2)cc1[C@]12CN(C(=O)c3cn(C)nn3)C[C@H]1[C@@H]2c1ccccc1` [Example 147, (1-(1-(4-fluorophenyl)-6-methyl-1H-indazol-5-yl)-6-phenyl-3-azabicyclo[3.1.0]hexan-3-yl)(1-methyl-1H-l,2,3-triazol-4-yl)methanone] displayed a Ki of 37 nM. As for `Cc1cc2c(cnn2-c2ccc(F)cc2)cc1[C@@]12CN(S(=O)(=O)c3ccn(C)n3)C[C@@H]1[C@H]2c1ccccc1` (single isomer, unassigned) [Example 76], the figure is 9.4 nM; as for `Cc1cc2c(cnn2-c2ccc(F)cc2)cc1[C@@]12CN(C(=O)c3ccccc3S(C)(=O)=O)C[C@@H]1[C@H]2c1ccccc1` (stereo in doubt) [Example 159, (1-(1-(4-fluorophenyl)-6-methyl-1H-indazol-5-yl)-6-phenyl-3-azabicyclo[3.1.0]hexan-3-yl)(2-(methylsulfonyl)phenyl)methanone], 24 nM.

`Cc1cc2c(cnn2-c2ccc(F)cc2)cc1[C@]12CN(C(=O)c3ccccc3)C[C@H]1[C@H]2c1ccccn1` (stereo in doubt) [Example 186, (1-(1-(4-fluorophenyl)-6-methyl-1H-indazol-5-yl)-6-(pyridin-2-yl)-3-azabicyclo[3.1.0]hexan-3-yl)(phenyl)methanone]: the affinity, expressed as Ki, was 630 nM. To `Cc1cc2c(cnn2-c2ccc(F)cc2)cc1[C@@]12CN(C(=O)C(C)C)C[C@@H]1[C@H]2c1ccccc1` (single isomer, unassigned) [Example 113, 1-(1-(1-(4-fluorophenyl)-6-methyl-1H-indazol-5-yl)-6-phenyl-3-azabicyclo[3.1.0]hexan-3-yl)-2-methylpropan-1-one] belongs 58 nM. To `Cc1cc2c(cnn2-c2ccc(F)cc2)cc1[C@@]12CN(C(=O)c3ncccc3C(F)(F)F)C[C@@H]1[C@H]2c1ccccc1` (single isomer, unassigned) [Example 148, (1-(1-(4-fluorophenyl)-6-methyl-1H-indazol-5-yl)-6-phenyl-3-azabicyclo[3.1.0]hexan-3-yl)(3-(trifluoromethyl)pyridin-2-yl)methanone] belongs 9.2 nM.

In turn, `CCCn1ncc(S(=O)(=O)N2C[C@H]3[C@H](c4ccccc4)[C@@]3(c3cc4cnn(-c5ccc(F)cc5)c4cc3C)C2)n1` [Example 75] came in with a Ki of 25 nM. This Ki is about 2.7-fold higher than that of the compound before. In turn, `CO[C@]1(c2ccccc2)C[C@@H]2CN(C(C)=O)C[C@]2(c2cc3cnn(-c4ccc(F)cc4)c3cc2C)C1` [Example 33] had a Ki of 220 nM.

Source of the values: patent publication US20250115583A1, “BICYCLIC INDAZOLE GLUCOCORTICOID RECEPTOR ANTAGONISTS” (Corcept Therapeutics Incorporated, priority 2021, published 2025).
